Columns and labels:
HCMV = assay: Anti-HCMV (anti-human cytomegalovirus) cytopathogenicity test; type: cell-based; conditions: Human betaherpesvirus 5, NHDF, 144 h, concentration inhibiting the CPE by 50% vs untreated virus control; HCMV-infected NHDF cells, 6 days, visual assessment
Experimental: Anti-HCMV (Anti-Human Cytomegalovirus) Cytopathogenicity Tests The test compounds are employed as 50 millimolar (mM) solutions in dimethyl sulfoxide (DMSO). Ganciclovir®, Foscarnet® and Cidofovir® are used as reference compounds. After the addition of 2 μl of the 50, 5, 0.5 and 0.05 mM DMSO stock solutions respectively to 98 μl portions of cell culture medium in row […] for duplicate determinations, 1:2 dilutions are carried out with 50 μl portions of medium up to row 11 of the 96-well plate. The wells in rows 1 and 12 each contain 50 μl of medium. 150 μl of a suspension of 1×10^4 cells (human prepuce fibroblasts [NHDF]) are then pipetted into each of the wells (row 1=cell control) and, in rows 2-12, a mixture of HCMV-infected and uninfected NHDF cells (M.O.I.=0.001-0.002), i.e. 1-2 infected cells per 1000 uninfected cells. Row 12 (without substance) serves as virus control. The final test concentrations are 250-0.0005 μM. The plates are incubated at 37° C./5% CO2 for 6 days, i.e. until all the cells in the virus controls are infected (100% cytopathogenic effect [CPE]). The wells are then fixed and stained by adding a mixture of formalin and Giemsa's dye (30 minutes), washed with double-distilled water and dried in a drying oven at 50° C. The plates are then assessed visually using an overhead microscope (plaque multiplier from Technomara). The following data can be obtained from the test plates: EC50 (HCMV)=substance concentration in μM which inhibits the CPE (cytopathic effect) by 50% compared with the untreated virus control;

[1] = Cytostatic effects on NHDF cells in the anti-HCMV cytopathogenicity test; type: cell-based, human; conditions: human, concentration at which no visible cytostatic effects on NHDF cells are evident vs untreated cell control
Experimental: Anti-HCMV (Anti-Human Cytomegalovirus) Cytopathogenicity Tests The test compounds are employed as 50 millimolar (mM) solutions in dimethyl sulfoxide (DMSO). Ganciclovir®, Foscarnet® and Cidofovir® are used as reference compounds. After the addition of 2 μl of the 50, 5, 0.5 and 0.05 mM DMSO stock solutions respectively to 98 μl portions of cell culture medium in row […] for duplicate determinations, 1:2 dilutions are carried out with 50 μl portions of medium up to row 11 of the 96-well plate. The wells in rows 1 and 12 each contain 50 μl of medium. 150 μl of a suspension of 1×10^4 cells (human prepuce fibroblasts [NHDF]) are then pipetted into each of the wells (row 1=cell control) and, in rows 2-12, a mixture of HCMV-infected and uninfected NHDF cells (M.O.I.=0.001-0.002), i.e. 1-2 infected cells per 1000 uninfected cells. Row 12 (without substance) serves as virus control. The final test concentrations are 250-0.0005 μM. The plates are incubated at 37° C./5% CO2 for 6 days, i.e. until all the cells in the virus controls are infected (100% cytopathogenic effect [CPE]). The wells are then fixed and stained by adding a mixture of formalin and Giemsa's dye (30 minutes), washed with double-distilled water and dried in a drying oven at 50° C. The plates are then assessed visually using an overhead microscope (plaque multiplier from Technomara). The following data can be obtained from the test plates: CC50 (NHDF)=substance concentration in μM at which no visible cytostatic effects on the cells are evident compared with the untreated cell control;

SMILES | EC50 (HCMV) | CC50 at 6 days [1]
CCOC(=O)C1CCN(c2c(F)cc3c(=O)c(C(=O)NCc4ccc(Cl)cc4Cl)cn(CC(F)(F)F)c3c2OC)CC1 [Example 1, Ethyl 1-[3-{[(2,4-dichlorobenzyl)amino]carbonyl}-6-fluoro-8-methoxy-4-oxo-1-(2,2,2-trifluoroethyl)-1,4-dihydroquinolin-7-yl]piperidine-4-carboxylate] | 0.009 µM | 94 µM
CCOC(=O)C1CCN(c2c(F)cc3c(=O)c(C(=O)NCc4ccc(OC(F)(F)F)cc4C)cn(CC(F)(F)F)c3c2OC)CC1 [Example 2, Ethyl 1-[6-fluoro-8-methoxy-3-({[2-methyl-4-(trifluoromethoxy)benzyl]amino}carbonyl)-4-oxo-1-(2,2,2-trifluoroethyl)-1,4-dihydroquinolin-7-yl]piperidine-4-carboxylate] | 0.005 µM | 47 µM
CCOC(=O)C1CCN(c2c(F)cc3c(=O)c(C(=O)NCc4ccc(OC(F)(F)F)cc4Cl)cn(CC(F)(F)F)c3c2OC)CC1 [Example 3, Ethyl 1-[3-({[2-chloro-4-(trifluoromethoxy)benzyl]amino}carbonyl)-6-fluoro-8-methoxy-4-oxo-1-(2,2,2-trifluoroethyl)-1,4-dihydroquinolin-7-yl]piperidine-4-carboxylate] | 0.008 µM | 24 µM
CCOC(=O)C1CCN(c2c(F)cc3c(=O)c(C(=O)NCc4ccc(Cl)cc4C)cn(CC(F)(F)F)c3c2OC)CC1 [Example 7] | 0.018 µM | 94 µM
CCOC(=O)C1CCN(c2c(F)cc3c(=O)c(C(=O)NCc4ccc(Cl)cc4Cl)cn([C@H]4C[C@H]4F)c3c2OC)CC1 [Example 13] | 0.019 µM | 23 µM
COc1c(N2CCC(C(N)=O)CC2)c(F)cc2c(=O)c(C(=O)NCc3ccc(Cl)cc3Cl)cn(CC(F)(F)F)c12 [Example 27] | 0.013 µM | 21 µM
COc1c(N2CCC(C(N)=O)CC2)c(F)cc2c(=O)c(C(=O)NCc3ccc(Cl)cc3C)cn(CC(F)(F)F)c12 [Example 28] | 0.014 µM | 21 µM
COc1c(N2CCC(C(N)=O)CC2)c(F)cc2c(=O)c(C(=O)NCc3ccc(C(F)(F)F)cc3C)cn(CC(F)(F)F)c12 [Example 30] | 0.034 µM | 11 µM
COc1c(N2CCC(C(N)=O)CC2)c(F)cc2c(=O)c(C(=O)NCc3ccc(OC(F)(F)F)cc3C)cn(CC(F)(F)F)c12 [Example 31, 1-[6-Fluoro-8-methoxy-3-({[2-methyl-4-(trifluoromethoxy)benzyl]amino}carbonyl)-4-oxo-1-(2,2,2-trifluoroethyl)-1,4-dihydroquinolin-7-yl]piperidine-4-carboxamide] | 0.008 µM | 16 µM
COc1c(N2C[C@@H](C)[C@@H](O)[C@@H](C)C2)c(F)cc2c(=O)c(C(=O)NCc3ccc(OC(F)(F)F)cc3C)cn(CC(F)(F)F)c12 [Example 32, 6-Fluoro-7-[(all-cis)-4-hydroxy-3,5-dimethylpiperidin-1-yl]-8-methoxy-N-[2-methyl-4-(trifluoromethoxy)benzyl]-4-oxo-1-(2,2,2-trifluoroethyl)-1,4-dihydroquinoline-3-carboxamide] | 0.017 µM | 11 µM
COc1c(N2CCC3(CC2)CNC(=O)C3)c(F)cc2c(=O)c(C(=O)NCc3ccc(OC(F)(F)F)cc3C)cn(CC(F)(F)F)c12 [Example 33, 6-Fluoro-8-methoxy-N-[2-methyl-4-(trifluoromethoxy)benzyl]-4-oxo-7-(3-oxo-2,8-diazaspiro[4.5]dec-8-yl)-1-(2,2,2-trifluoroethyl)-1,4-dihydroquinoline-3-carboxamide] | 0.017 µM | 19 µM
COc1c(N2CCC3(CC2)CNC(=O)C3)c(F)cc2c(=O)c(C(=O)NCc3ccc(OC(F)(F)F)cc3C)cn(C3CC3)c12 [Example 34, 1-Cyclopropyl-6-fluoro-8-methoxy-N-[2-methyl-4-(trifluoromethoxy)benzyl]-4-oxo-7-(3-oxo-2,8-diazaspiro[4.5]dec-8-yl)-1,4-dihydroquinoline-3-carboxamide] | 0.04 µM | 11 µM
COc1c(N2CCC3(CC2)CNC(=O)C3)c(F)cc2c(=O)c(C(=O)NCc3ccc(OC(F)(F)F)cc3Cl)cn(CC(F)(F)F)c12 [Example 36] | 0.014 µM | 21 µM
COc1c(N2CCC(C(=O)O)CC2)c(F)cc2c(=O)c(C(=O)NCc3ccc(OC(F)(F)F)cc3C)cn(CC(F)(F)F)c12 [Example 47, 1-[6-Fluoro-8-methoxy-3-({[2-methyl-4-(trifluoromethoxy)benzyl]amino}carbonyl)-4-oxo-1-(2,2,2-trifluoroethyl)-1,4-dihydroquinolin-7-yl]piperidine-4-carboxylic acid] | 0.004 µM | 86 µM
COc1c(N2CCC(C(=O)O)CC2)c(F)cc2c(=O)c(C(=O)NCc3ccc(OC(F)(F)F)cc3Cl)cn(CC(F)(F)F)c12 [Example 48, 1-[3-({[2-Chloro-4-(trifluoromethoxy)benzyl]amino}carbonyl)-6-fluoro-8-methoxy-4-oxo-1-(2,2,2-trifluoroethyl)-1,4-dihydroquinolin-7-yl]piperidine-4-carboxylic acid] | 0.003 µM | 20 µM
COc1c(N2CCC(C(=O)O)CC2)c(F)cc2c(=O)c(C(=O)NCc3ccc(OC(F)(F)F)cc3C)cn(CCF)c12 [Example 49, 1-[6-Fluoro-1-(2-fluoroethyl)-8-methoxy-3-({[2-methyl-4-(trifluoromethoxy)benzyl]amino}carbonyl)-4-oxo-1,4-dihydroquinolin-7-yl]piperidine-4-carboxylic acid] | 0.006 µM | 94 µM
COc1c(N2CCC(C(=O)O)CC2)c(F)cc2c(=O)c(C(=O)NCc3ccc(Cl)cc3Cl)cn(CC(F)(F)F)c12 [Example 50, 1-[3-{[(2,4-Dichlorobenzyl)amino]carbonyl}-6-fluoro-8-methoxy-4-oxo-1-(2,2,2-trifluoroethyl)-1,4-dihydroquinolin-7-yl]piperidine-4-carboxylic acid] | 0.012 µM | 47 µM
COc1c(N2CCCC(CC(=O)O)C2)c(F)cc2c(=O)c(C(=O)NCc3ccc(Cl)cc3Cl)cn(CC(F)(F)F)c12 (centres unmarked) [Example 51, [3-{[(2,4-Dichlorobenzyl)amino]carbonyl}-6-fluoro-8-methoxy-4-oxo-1-(2,2,2-trifluoroethyl)-1,4-dihydroquinolin-7-yl]piperidin-3-ylacetic acid] | 0.026 µM | 47 µM
COc1c(N2CCC(CC(=O)O)CC2)c(F)cc2c(=O)c(C(=O)NCc3ccc(OC(F)(F)F)cc3C)cn(CC(F)(F)F)c12 [Example 53, [6-Fluoro-8-methoxy-3-({[2-methyl-4-(trifluoromethoxy)benzyl]amino}carbonyl)-4-oxo-1-(2,2,2-trifluoroethyl)-1,4-dihydroquinolin-7-yl]piperidin-4-ylacetic acid] | 0.005 µM | 94 µM
COc1c(N2CCC(C(=O)O)CC2)c(F)cc2c(=O)c(C(=O)NCc3ccc(C(F)(F)F)cc3C)cn(CC(F)(F)F)c12 [Example 54] | 0.022 µM | 21 µM
COc1ccc(CNC(=O)c2cn(CC(F)(F)F)c3c(OC)c(N4CCC(C(=O)O)CC4)c(F)cc3c2=O)c(Cl)c1 [Example 55] | 0.031 µM | 16 µM
COc1c(N2CCC(C(=O)O)CC2)c(F)cc2c(=O)c(C(=O)NCc3c(C)cc(Cl)cc3Cl)cn(CC(F)(F)F)c12 [Example 57] | 0.026 µM | 23 µM

Source: patent publication US7977349B2, “Substituted quinolones III” (Aicuris GmbH & Co. KG, priority 2006, dated 2011)
